Source: patent US12090204B2, “Photodynamic therapy compositions and methods of use thereof” (Pinnacle Biologics, Inc., priority 2020, dated 2024)
“And” between values parts separate entries of the source, which are not always exact repeats. Identical values can stand only once.

What was measured:
[1] = system: methicillin-resistant Staphylococcus aureus (MRSA), Staphylococcus aureus ATCC BAA 1768; experiment: partial thickness wound model, microbial load in wound swabs (Example 4); format: in vivo, Yorkshire pig; settings: for overall decrease of mean microbial load in wound swabs over the course of treatment (SD1 to SD3): untreated Group 2: 20-fold; for WOUND SWABS (CFU/mL) 24 hr. Post-Treat 2 / WOUND SWABS (CFU/mL) Immediately Post-Treat 2 / WOUND SWABS (CFU/mL) Pre-treat 2 / WOUND SWABS (CFU/mL) Pre-Treat 1: individual wounds; for WOUND SWABS (CFU/mL) Pre-Treat 1: 1.0 mg/mL
Method: Bacteria strains were obtained from ATCC (Manassas, VA). Bacteria were propagated from glycerol stock store at −80° C. A stab of the glycerol stock was used to inoculate 5 mL of trypticase soy broth. The cultures were incubated overnight at 37° C. with shaking at 250 rpm. The following day, a portion of overnight culture was used to prepare a streak plate onto an Oxacillin screen plate which was incubated overnight at 37° C. and single colony isolates of freshly plated bacteria were used to prepare bacterial inoculum. The morning of wounding an infection, a portion of overnight culture was used to inoculate 50 mL of trypticase soy broth and the newly inoculated media was incubated at 37° C. with shaking at 250 rpm until log phase growth was reached. The bacteria were pelleted by centrifugation at 4,000 rpm at 4° C. for 10 minutes in a Sorval tabletop centrifuge. The culture supernatant was discarded, and the bacterial pellets were suspended in a volume of sterile PBS to yield a concentration of 2×10^7 CFU/mL.
Wounds were swabbed with a sterile cotton tipped applicator in a serpentine motion starting at the upper left-hand margin of the wound and ending at the bottom right wound margin. A dry sterile cotton tipped applicator was used for all wounds. The swabs were placed into 14 mL falcon tubes containing 1 mL of sterile PBS. The tubes were vigorously vortexed and serial 10-fold dilutions of the PBS in the tubes containing the swabs were prepared. One hundred microliters of select dilutions for wound groups were plated onto agar plates. The plates were incubated at 35-37° C. and colonies enumerated manually. The data are reported as CFU/swab normalized to the volume of PBS in which the swabs were placed.
This study evaluated the ability of porfimer sodium to reduce/eliminate microbial colonization and biofilm from surgical sites in a partial thickness would healing model. The study was conducted in a single female Yorkshire pig over the course of five days. A dermatome was used to create 20 partial thickness wounds. Sixteen of the wounds were infected with methicillin-resistant Staphylococcus aureus (MRSA), and four were designated as uninfected controls. The wounds were bandaged and the bacterial biofilm allowed to develop for 48 hours.
Designated infected wounds were subjected to two courses of treatment with the test article at a periodicity of 24 hours. Article dose concentration of 1.0 mg/mL of porfimer sodium was prepared as described in Example 3, and used immediately, with the exception of two wounds (L6 and L7) where the test article (reconstituted porfimer sodium) was mixed 1:1 with NeilMed NasalGel.
Treatments consisted of application of the test article followed by photoactivation with one or two intensities of light, 150 J/cm^2 or 200 J/cm^2 (Table 3). Wounds were evaluated for microbial load prior to each course of treatment, immediately following the final treatment and 24 hours following the final treatment. Tissue specimens from infected and non-infected wounds were harvested for histology of biofilm formation at each treatment time point. Tissue specimens from treated wounds were harvested 24 hours following the final treatments for histology.

[2] = conventional reconstituted porfimer sodium, comparison statement; cited from earlier work
[3] = system: P. gingivalis (−); experiment: porfimer sodium aPDT, 48 hour biofilm culture; format: cell-based, Porphyromonas gingivalis; settings: 630 nm, kill at 100 J/cm2 (light dose 75-100 J/cm2), porfimer sodium 250 μg/mL
Method: (§1) Bacteria were routinely cultured using tryptic soy broth or agar at 37° C. in a 5% CO2 incubator. Bacteria were isolated and suspended with 0.9% NaCl to an Optical Density (OD) of 0.1 taken at 630 nm, to generate the inoculum used for either planktonic or biofilm assays.
(§2) The colony forming units (CFU) per mL of the starting inoculum for every experiment was determined by dilution plating. Control samples were exposed to laser at 630 nm in the absence of porfimer sodium, porfimer sodium in the absence of laser exposure, or in saline alone in the absence of porfimer sodium and 630 nm laser light. All experimental samples were dilution plated to enumerate viable CFU's. Three independent replicates were performed for each reaction condition per strain per assay. […]
(§3) Bacteria were exposed to 630 nm laser light via a fiber optic with a lens affixed to the distal end to provide a uniform diverging light field. […] Power output of the laser was measured using a UDT/Gamma Scientific 371 optical power meter and an integrating sphere. […]
(§4) Biofilms were formed on glass coupons in culture dishes containing a bacterial inoculum for 48 hours under conditions specific to the strain. […] Power output of the laser was measured using a UDT/Gamma Scientific 371 optical power meter and an integrating sphere. […]

[4] = system: MRSA (+); experiment: porfimer sodium aPDT, 48 hour biofilm culture; format: cell-based, methicillin-resistant Staphylococcus aureus; settings: 630 nm, kill at 100 J/cm2 (light dose 75-100 J/cm2), porfimer sodium 250 μg/mL
Method: as §1, §2, §3, §4

[5] = Group 4 (200 J/cm^2), N 3, without wounds L6, R5, R9

porfimer sodium
Mean microbial load, Posttreat 2 (swab) ([1]; Group 3 (150 J/cm^2), N 6): 5.33E+03 CFU/swab
Mean microbial load, Pretreat 1 (swab) ([1]; Group 3 (150 J/cm^2), N 6): 9.91E+05 CFU/swab
Mean microbial load, Pretreat 2 (swab) ([1]; Group 3 (150 J/cm^2), N 6): 1.90E+05 CFU/swab
additional decrease of mean microbial load in wound swabs following Treatment 2 ([1]; Group 3, 150 J/cm^2): 36 fold
decrease of mean microbial load in wound swabs following treatment 1 (SD1 to SD2) ([1]; Group 3, 150 J/cm^2): 5.2 fold
overall decrease of mean microbial load in wound swabs over the course of treatment (SD1 to SD3) ([1]; Group 3, 150 J/cm^2): 186 fold
WOUND SWABS (CFU/mL) 24 hr. Post-Treat 2 ([1]; Group 3 = 150 J/cm2 treatment): 1.14E+04 CFU/mL and 1.17E+04 CFU/mL and 3.50E+02 CFU/mL and 2.65E+03 CFU/mL and 4.30E+03 CFU/mL
WOUND SWABS (CFU/mL) Immediately Post-Treat 2 ([1]; Group 3 = 150 J/cm2 treatment): 1.92E+05 CFU/mL and 6.16E+03 CFU/mL
WOUND SWABS (CFU/mL) Pre-treat 2 ([1]; Group 3 = 150 J/cm2 treatment): 8.80E+04 CFU/mL and 6.60E+05 CFU/mL and 2.74E+03 CFU/mL and 4.20E+04 CFU/mL and 3.45E+05 CFU/mL
WOUND SWABS (CFU/mL) Pre-Treat 1 ([1]; Group 3 = 150 J/cm2 treatment): 6.30E+05 CFU/mL and 3.03E+06 CFU/mL and 2.88E+05 CFU/mL and 4.00E+03 CFU/mL and 5.40E+04 CFU/mL
Mean microbial load, Posttreat 2 (swab) [1, 5]: 1.16E+03 CFU/swab
Mean microbial load, Pretreat 1 (swab) [1, 5]: 8.53E+05 CFU/swab
Mean microbial load, Pretreat 2 (swab) [1, 5]: 5.11E+05 CFU/swab
additional decrease of mean microbial load in wound swabs following Treatment 2 ([1]; Group 4, 200 J/cm^2): 250 fold
decrease of mean microbial load in wound swabs following treatment 1 (SD1 to SD2) ([1]; Group 4, 200 J/cm^2): 1.7 fold
overall decrease of mean microbial load in wound swabs over the course of treatment (SD1 to SD3) ([1]; Group 4, 200 J/cm^2): 735 fold
WOUND SWABS (CFU/mL) 24 hr. Post-Treat 2 ([1]; Group 4 = 200 J/cm2 treatment): 1.55E+03 CFU/mL and 1.79E+02 CFU/mL and 1.75E+03 CFU/mL and 3.15E+03 CFU/mL and 2.31E+02 CFU/mL
WOUND SWABS (CFU/mL) Immediately Post-Treat 2 ([1]; Group 4 = 200 J/cm2 treatment): 4.20E+04 CFU/mL and 2.80E+04 CFU/mL
WOUND SWABS (CFU/mL) Pre-treat 2 ([1]; Group 4 = 200 J/cm2 treatment): 1.40E+04 CFU/mL and 2.00E+04 CFU/mL and 1.50E+06 CFU/mL and 1.44E+06 CFU/mL and 7.60E+00 CFU/mL
WOUND SWABS (CFU/mL) Pre-Treat 1 ([1]; Group 4 = 200 J/cm2 treatment): 2.42E+05 CFU/mL and 2.60E+04 CFU/mL and 2.29E+06 CFU/mL and 0.00E+00 CFU/mL (2×)
consistency of results when applied directly to infected wounds ([1]; porfimer sodium mixed in saline): inconsistency in the results
time stable when reconstituted with saline [2]: 24 h
Rate of kill [3]: 7Log
Rate of kill [4]: 7Log
